Laboratory results taken from patent US20050154042A1, “N-alkyl pyrroles as HMG-CoA reductase inhibitors” (priority 2003, published 2005).
Counter-ions that a name gives are not always drawn.

Assays:
rat hepatocytes = experiment: Sterol biosynthesis in rat hepatocytes (14C acetic acid labeling); type: cell-based; settings: Hepatocyte, 14C cholesterol from 14C acetic acid, 4 hrs pre-incubation + 4 hrs labeling
Description: Protocol for Sterol Biosynthesis in Rat Hepatocytes:
(§1) Cell Culture, Compounds Treatment and Cell Labeling:
Frozen rat hepatocytes purchased from XenoTech(cat# N400572) were seeded on 6-well collagen I coated plates at a density of […]. The cells were grown in DMEM medium (Gibco, #11054-020) containing 10% FBS and 10 mM HEPES(Gibco # 15630-080) for 24 hrs. The cells were pre-incubated with compounds for 4 hrs and then labeled by incubating in medium containing 1 uCi/per ml of ^14C acetic acid for an additional 4 hrs. After labeling, the cells were washed twice with 5 mM MOPS solution containing 150 mM NaCl and 1 mM EDTA and collected in the lysis buffer containing 10% KOH and 80%(vol.) ethanol.
Cholesterol Extraction and Data Analysis:
In order to separate labeled cholesterol from labeled non-cholesterol lipids, the cells lysates were subject to saponification at 60° C. for 2 hrs. The lysates were then combined with 0.5 volume of H2O and 2 volumes of hexane, followed by 30 minutes of vigorous shaking. After the separation of two phases, the upper-phase solution was collected and combined with 5 volumes of scintillation cocktail. The amount of ^14C cholesterol was quantified by liquid scintillation counting. The IC50 values were calculated with GraphPad software (Prism 3.03).

[1] = molecular target: T1, HMGCoA (3-Hydroxy-3-methylglutaryl CoA) Reductase (Rattus norvegicus, UniProt P51639); experiment: HMGCoA reductase assay with rat liver microsomes (14C-HMGCoA); type: biochemical; settings: 45 min at 37° C.
T1 construct: Male Charles River Sprague-Dawley rats were fed with 2.5% cholestyramine in rat chow diets for 5 days before sacrificing; from tissue; host or cells: liver microsomes of male Sprague-Dawley rats fed cholestyramine
T1 sequence (P51639 1-887): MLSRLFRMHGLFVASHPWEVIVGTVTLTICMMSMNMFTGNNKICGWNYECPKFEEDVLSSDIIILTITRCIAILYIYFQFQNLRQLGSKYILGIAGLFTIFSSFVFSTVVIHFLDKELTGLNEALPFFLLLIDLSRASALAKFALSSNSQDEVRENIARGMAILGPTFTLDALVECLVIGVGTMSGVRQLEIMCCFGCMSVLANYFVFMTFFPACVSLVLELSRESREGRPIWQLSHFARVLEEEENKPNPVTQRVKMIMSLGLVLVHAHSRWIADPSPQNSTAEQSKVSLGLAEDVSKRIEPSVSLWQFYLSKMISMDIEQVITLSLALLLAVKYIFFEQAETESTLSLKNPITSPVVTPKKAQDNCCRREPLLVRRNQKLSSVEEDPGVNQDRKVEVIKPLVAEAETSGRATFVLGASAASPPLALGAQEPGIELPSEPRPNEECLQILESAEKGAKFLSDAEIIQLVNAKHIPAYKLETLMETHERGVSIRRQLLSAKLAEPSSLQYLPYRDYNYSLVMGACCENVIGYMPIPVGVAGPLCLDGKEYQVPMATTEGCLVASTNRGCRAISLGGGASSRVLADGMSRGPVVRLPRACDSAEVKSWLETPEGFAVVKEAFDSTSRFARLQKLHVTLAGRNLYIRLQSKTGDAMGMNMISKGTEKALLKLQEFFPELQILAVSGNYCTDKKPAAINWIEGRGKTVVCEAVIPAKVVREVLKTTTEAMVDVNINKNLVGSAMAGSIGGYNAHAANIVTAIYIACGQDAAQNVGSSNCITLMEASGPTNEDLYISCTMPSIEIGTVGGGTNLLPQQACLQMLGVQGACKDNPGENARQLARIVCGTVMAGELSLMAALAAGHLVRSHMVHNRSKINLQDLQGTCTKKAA
Description: (See, e.g., J. of Lipid Research 1998; 39: 75-84; Analytical Biochemistry, 1991; 196: 211-214; RR740-01077 Pharmacology 8, Nov., 1982) Accordingly, such compounds and formulations comprising such compounds are useful for treating, controlling or preventing inter alia hypercholesterolemia, hyperlipidemia, hypertriglyceridemia or atherosclerosis.
Rat Liver Microsomal Isolation Procedure:
Male Charles River Sprague-Dawley rats were fed with 2.5% cholestyramine in rat chow diets for 5 days before sacrificing. Livers were minced and homogenized in a sucrose homogenizing solution in an ice bath 10 times. Homogenates were diluted into a final volume of 200 mL, and centrifuged 15 min. with a Sorvall Centrifuge at 5° C., 10,000 rpm (12,000×G). The upper fat layer was removed and the supernatant decanted into fresh tubes. This step was repeated one more time before transferring the supernatant into ultracentrifuge tubes and centrifuged at 36,000 rpm (105,000×G) for an hour at 5° C. The resulting supernatant was discarded and the pellet was added to total of 15 mL 0.2 M KH2PO4. Pellets were homogenized gently by hand about 10 times. Samples were pooled and diluted into total of 60 mL buffer. The protein concentration of the homogenate was determined by the […] using a BCA kit from Pierce Chemical Company. 1 mL aliquots of microsomes were kept frozen in liquid nitrogen.
HMGCoA (3-Hydroxy-3-methylglutaryl CoA) Reductase Assay:
[3-^14C]-HMGCoA (57.0 mCi/mmol) was purchased from Amersham Biosciences, UK. HMGCoA, mevalonolactone, NADPH were purchased from Sigma Chemical Co. AG 1-8X resin was purchased from Bio-Rad Laboratory.
One μL of dimethyl sulfoxide (DMSO) or 1 μL of DMSO containing a test compound at a concentration sufficient to give a final assay concentration of between 0.1 nM to 1 mM was placed into each well of a Corning 96 well plate. […] Scintillation cocktail (Ultima-Flo-M) was added into each well and plates counted on a Trilux Microbeta Counter. The IC50 values were calculated with GraphPad software (Prism). […]

L6 rat myoblast = experiment: Sterol biosynthesis in L6 rat myoblast (14C acetic acid labeling); type: cell-based; settings: 14C cholesterol from 14C acetic acid, 3 hours pre-incubation + 3 hours labeling
Description: C.) Protocol for Sterol Biosynthesis in L6 Rat Myoblast:
as §1
L6 rat myoblast purchased from ATCC(CRL-1458) were grown in T-150 vented culture flasks and seeded on 12-well culture plates at a density of 60,000 cells per well. The cells were grown in DMEM, (Dulbecco's Modified Eagle Medium) (Gibco, #10567-014) containing 10% heat inactivated FBS (Fetal Bovine Serum) (Gibco # 10082-139) for 72 hours until reaching confluence. The cells were pre-incubated in media with compound and 0.2% DMSO (dimethyl sulfoxide) for 3 hours and then labeled by incubating in medium containing compound, 0.2% DMSO and 1 μCi/per mL of ^14C acetic acid for an additional 3 hours. […]
Lipid ester bonds were hydrolyzed by saponification of the lysates at 60° C. for 2 hours. […] The amount of ^14C cholesterol was quantified by scintillation counting in a Trilux 1450 plate reader (Wallac). The IC50 values were calculated from % inhibitions relative to negative controls vs. compound concentration on Microsoft excel 2000 data analysis wizard using a sigmoid inhibition curve model with formula: y=Bmax(1−(x^n/K^n+x^n))+y2 Where K is the IC50 for the inhibition curve, X is inhibitor concentration, Y is the response being inhibited and Bmax+Y2 is the limiting response as X approaches zero.

SMILES	IC50 (rat hepatocytes) [nM]	IC50 [1] [nM]	IC50 (L6 rat myoblast) [nM]	melting point [°C]
CC(C)n1c(CC[C@@H](O)C[C@@H](O)CC(=O)[O-])c(-c2ccc(F)cc2)c(-c2ccccc2)c1C(=O)Nc1ccccc1.[Na+] [Example 1, (3R,5R)-7-[3-(4-fluoro-phenyl)-1-isopropyl-4-phenyl-5-phenylcarbamoyl-1H-pyrrol-2-yl]-3,5-dihydroxy-heptanoic Acid Sodium Salt]	0.74	12	157	239 to 241
CC(C)n1c(CC[C@@H](O)C[C@@H](O)CC(=O)O)c(-c2ccc(F)cc2)c(-c2ccccc2)c1C(=O)Nc1ccc(F)cc1 [Example 6, (3R,5R)-7-[3-(4-Fluoro-phenyl)-5-(4-fluoro-phenylcarbamoyl)-1-isopropyl-4-phenyl-1H-pyrrol-2-yl]-3,5-dihydroxy-heptanoic Acid Sodium Salt]	0.23	4.1		
CC(C)n1c(CCC(O)CC(O)CC(=O)[O-])c(-c2ccc(F)cc2)c(-c2ccccc2)c1C(=O)Nc1ccc(C(=O)[O-])cn1.[Na+].[Na+] (stereo not shown) [Example 25, 6-{[5-(6-Carboxy-3,5-dihydroxy-hexyl)-4-(4-fluoro-phenyl)-1-isopropyl-3-phenyl-1H-pyrrole-2-carbonyl]-amino}-nicotinic Acid di-sodium Salt]	0.19	0.61	2270	> 250
